Source: the supplement of paper PMC11061612

Legend:
Test in all cases: combination Emax (second highest fraction inhibited in the dose matrix, 72 h); higher = more inhibition; extreme values may be limits of the assay
[1] = test system: NCI-H322M (Lung Adenocarcinoma)
Method in brief: (§1)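 Cell lines grown in DMEM/F12 or RPMI with 10% FBS were plated in 1536-well plates and held 24 hours at 37°C, 5% CO2 before 72 hours of exposure to two-drug dose matrices, with DMSO typically at 0.2%. CellTiter-Glo 2.0 luminescence gave viability, which was converted to inhibition. Vehicle wells were set to 0 and blank wells to 1. Combination Emax is the second-highest inhibition in the matrix, and Bliss excess is the observed combination effect minus the expected EA + EB − EA·EB, where EA and EB are the single-agent effects.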

[2] = test system: EW-18 (Ewing's Sarcoma)
Method in brief: as §1

[3] = test system: U-87-MG (Glioblastoma)
Method in brief: as §1

[4] = test system: KYSE-150 (Esophageal Squamous Cell Carcinoma)
Method in brief: as §1

[5] = test system: OVISE (Ovarian Carcinoma)
Method in brief: as §1

[6] = test system: HC-1 (Other Blood Carcinomas)
Method in brief: as §1

[7] = test system: EMC-BAC-2 (Non-Small Cell Lung Carcinoma)
Method in brief: as §1

[8] = test system: LC4-1 (B-Lymphoblastic Leukemia)
Method in brief: as §1

[9] = test system: OCUB-M (Breast Carcinoma)
Method in brief: as §1

[10] = test system: JHH-7 (Hepatocellular Carcinoma)
Method in brief: as §1

[11] = test system: NCI-H1573 (Lung Adenocarcinoma)
Method in brief: as §1

[12] = test system: LOU-NH91 (Squamous Cell Lung Carcinoma)
Method in brief: as §1

[13] = test system: PFSK-1 (Other Solid Carcinomas)
Method in brief: as §1

[14] = test system: EW-3 (Ewing's Sarcoma)
Method in brief: as §1

CN(C)CCCOc1ccc(-c2ccc3ncc4c(c3c2)n(C2CCOCC2)c(=O)n4C)cn1 [AZD0156] + O=C(c1cc(Cc2n[nH]c(=O)c3ccccc23)ccc1F)N1CCN(C(=O)C2CC2)CC1 [Olaparib] (first compound max 3 µM, partner max 3 µM)
combination Emax [1]: 0.357 | combination Emax [2]: 0.61 | combination Emax [3]: 0.297 | combination Emax [4]: 0.295 | combination Emax [5]: 0.306 | combination Emax [6]: 0.527 | combination Emax [7]: 0.486 | combination Emax [8]: 0.673 | combination Emax [9]: 0.273 | combination Emax [10]: 0.339 | combination Emax [11]: 0.18 | combination Emax [12]: 0.209 | combination Emax [13]: 0.424 | combination Emax [14]: 0.708

C=CCn1c(=O)c2cnc(Nc3ccc(N4CCN(C)CC4)cc3)nc2n1-c1cccc(C(C)(C)O)n1 [AZD1775] + C1CN(CCC1(C(=O)N[C@@H](CCO)C2=CC=C(C=C2)Cl)N)C3=NC=NC4=C3C=CN4 [Capivasertib] (first compound max 3 µM, partner max 3 µM)
combination Emax [1]: 0.768 | combination Emax [2]: 0.859 | combination Emax [3]: 0.467 | combination Emax [4]: 0.727 | combination Emax [5]: 0.651 | combination Emax [6]: 0.982 | combination Emax [7]: 0.592 | combination Emax [8]: 0.884 | combination Emax [9]: 0.955 | combination Emax [10]: 0.727 | combination Emax [11]: 0.604 | combination Emax [12]: 0.727 | combination Emax [13]: 0.893 | combination Emax [14]: 0.518

Cn1cnc2c(F)c(Nc3ccc(Br)cc3Cl)c(C(=O)NOCCO)cc21 [Selumetinib] + CC(C)n1c(=O)n(C)c2cnc3cc(F)c(-c4ccc(OCCCN5CCCCC5)nc4)cc3c21 [AZD1390] (first compound max 10 µM, 7x7, partner max 0.3 µM)
combination Emax [1]: 0.527 | combination Emax [2]: 0.28 | combination Emax [3]: 0.215 | combination Emax [4]: 0.259 | combination Emax [5]: 0.184 | combination Emax [6]: 0.456 | combination Emax [7]: 0.278 | combination Emax [8]: 0.158 | combination Emax [9]: 0.0283 | combination Emax [10]: 0.262 | combination Emax [11]: 0.264 | combination Emax [12]: 0.219 | combination Emax [13]: 0.244 | combination Emax [14]: 0.104

CN(CCO)CC[C@H](CSc1ccccc1)Nc1ccc(S(=O)(=O)NC(=O)c2ccc(N3CCC([C@@H](O)c4ccccc4-c4ccc(Cl)cc4)CC3)cc2)cc1S(=O)(=O)C(F)(F)F [AZD4320] + CN(C)CCCOc1ccc(-c2ccc3ncc4c(c3c2)n(C2CCOCC2)c(=O)n4C)cn1 [AZD0156] (first compound max 1 µM, 7x7, partner max 1 µM)
combination Emax [1]: 0.172 | combination Emax [2]: 0.91 | combination Emax [3]: 0.165 | combination Emax [4]: 0.206 | combination Emax [5]: 0.806 | combination Emax [6]: 0.424 | combination Emax [7]: 0.185 | combination Emax [8]: 1 | combination Emax [9]: 0.516 | combination Emax [10]: 0.425 | combination Emax [11]: 0.2 | combination Emax [12]: 0.476 | combination Emax [13]: 0.375 | combination Emax [14]: 0.95

CN(CCO)CC[C@H](CSc1ccccc1)Nc1ccc(S(=O)(=O)NC(=O)c2ccc(N3CCC([C@@H](O)c4ccccc4-c4ccc(Cl)cc4)CC3)cc2)cc1S(=O)(=O)C(F)(F)F [AZD4320] + C1CN(CCC1(C(=O)N[C@@H](CCO)C2=CC=C(C=C2)Cl)N)C3=NC=NC4=C3C=CN4 [Capivasertib] (first compound max 1 µM, 7x7, partner max 3 µM)
combination Emax [1]: 0.0734 | combination Emax [2]: 0.875 | combination Emax [3]: 0.311 | combination Emax [4]: 0.347 | combination Emax [5]: 0.89 | combination Emax [6]: 0.616 | combination Emax [7]: 0.301 | combination Emax [8]: 1 | combination Emax [9]: 1 | combination Emax [10]: 0.391 | combination Emax [11]: 0.575 | combination Emax [12]: 0.494 | combination Emax [13]: 0.568 | combination Emax [14]: 0.918

COc1nnc2ccc(N3CCC(c4ccc(OCCN5CCN(C)C(=O)[C@H]5C)cc4)CC3)nn12 [AZD5153] + Cn1cnc2c(F)c(Nc3ccc(Br)cc3Cl)c(C(=O)NOCCO)cc21 [Selumetinib] (first compound max 1 µM, 7x7, partner max 10 µM)
combination Emax [1]: 0.726 | combination Emax [2]: 0.59 | combination Emax [3]: 0.698 | combination Emax [4]: 0.661 | combination Emax [5]: 0.626 | combination Emax [6]: 0.506 | combination Emax [7]: 0.738 | combination Emax [8]: 0.975 | combination Emax [9]: 0.534 | combination Emax [10]: 0.512 | combination Emax [11]: 0.755 | combination Emax [12]: 0.63 | combination Emax [13]: 0.664 | combination Emax [14]: 0.629

CC(=O)Nc1cccc(-n2c(=O)n(C3CC3)c(=O)c3c(Nc4ccc(I)cc4F)n(C)c(=O)c(C)c32)c1 [Trametinib] + Cc1nc(-c2cn3c(n2)-c2ccc(-c4cnn(C(C)(C)C(N)=O)c4)cc2OCC3)n(C(C)C)n1 [Taselisib] (first compound max 1 µM, 7x7, partner max 10 µM)
combination Emax [1]: 0.887 | combination Emax [2]: 0.637 | combination Emax [3]: 0.837 | combination Emax [4]: 0.886 | combination Emax [5]: 0.696 | combination Emax [6]: 0.665 | combination Emax [7]: 0.945 | combination Emax [8]: 0.328 | combination Emax [9]: 1 | combination Emax [10]: 0.429 | combination Emax [11]: 0.89 | combination Emax [12]: 0.672 | combination Emax [13]: 0.604 | combination Emax [14]: 0.364

Cc1c2c(nn1C)CSCc1cc(n(C)n1)CSc1cc(c3ccccc3c1)OCCCc1c(C(=O)O)n(C)c3c-2c(Cl)ccc13 [AZD5991] + Cc1cc2ncnn2cc1Nc1ncc2c(n1)n(C1CCOCC1)c(=O)n2C [AZD7648] (first compound max 1 µM, 7x7, partner max 10 µM)
combination Emax [1]: 0.459 | combination Emax [2]: 0.936 | combination Emax [3]: 0.326 | combination Emax [4]: 0.57 | combination Emax [5]: 0.269 | combination Emax [6]: 0.456 | combination Emax [7]: 0.678 | combination Emax [8]: 0.968 | combination Emax [9]: 0.983 | combination Emax [10]: 0.164 | combination Emax [11]: 0.673 | combination Emax [12]: 0.278 | combination Emax [13]: 1 | combination Emax [14]: 0.727
